Measured values taken from patent publication US20040248926A1, “Preventive or remedy for pruritus” (priority 2001, published 2004).

Key:
Type in all cases: in vivo
[1] = tested on: poly-L-arginine-induced scratching; test: Inhibitory effect on poly-L-arginine-induced scratching; settings: rats
Experimental: The experiment was carried out according to the method of Hayashi, et al. [Eur. J. Pharmacol., Vol. 425, pp. 219-227 (2001)].
(§1) Male Wistar rats of 5 weeks (supplied by Japan SLC) were used in the test. 4 to 6 rats were put in each plastic cage and reared by allowing them to freely take commercially available solid feed and water, in an animal room at 19-25° C., 30-70% humidity and a 12 h lighting cycle (lighting: 7:00 a.m. to 7:00 p.m.) a day.
Every rat was shaven on the back, individually put in an acrylic monitor cage (200×145×170 mm), and acclimated therein for 30 minutes. 50 μl of a solution of poly-L-arginine (by Sigma) (4 mg of poly-L-arginine was dissolved in 1 ml of physiological saline) was intracutaneously injected into the interscapular region of each rat. For 30 minutes immediately after this, the behavior of every rat was recorded with a 8-mm video camera recorder. The video was reproduced, and the number of the scratching by its back paws at around the area where the solution had been intracutaneously injected was counted for 30 minutes immediately after the intracutaneous administration. Each rat scratched itself a few times per about one second, and a series of these actions of each rat was counted as one.
Compound 1 was suspended in aqueous 0.5 w/v % methyl cellulose solution to have a concentration of 0.1 or 1 mg/ml. […]

[2] = tested on: compound 48/80-induced scratching; test: Inhibitory effect on compound 48/80-induced scratching in mice; settings: for number of the scratching: mean ± standard error; for effect on compound 48/80-induced scratching (in words): mice, p.o.
Experimental: The experiment was carried out according to the method of Kuraishi, et al. [Eur. J. Pharmacol., Vol. 275, pp. 229-233 (1995)).
as §1, with “ddY mice each weighing 19 to 22 g” for “Wistar rats of 5 weeks”, “25” for “4”, “26 mice” for “6 rats”
0.1 ml of a solution of compound 48/80 (by Sigma) (0.1 mg of compound 48/80 was dissolved in 1 ml of physiological saline) was subcutaneously injected into the right-side back shoulder of each mouse, and all the mice were individually put in a transparent cage. For 1 hour immediately after this, the behavior of every mouse was recorded with an 8-mm video camera recorder. The video was reproduced, and the number of the scratching by its right hind paw was counted for 1 hour immediately after the subcutaneous administration, at intervals of 5 minutes or 10 minutes, and the data of every 5 or 10 minutes were totaled. Each mouse scratched itself a few times per about one second, and a series of these actions of each mouse was counted as one.
Compound 1 and Compound 2 were separately suspended in aqueous 0.5 w/v % methyl cellulose solution to have a concentration of 3 mg/ml. The suspension of Compound 1 was further diluted with aqueous 0.5w/v % methyl cellulose solution, and suspensions or solutions for administration each having an intended concentration were prepared. The solvent (aqueous 0.5 w/v % methyl cellulose solution) or the suspension or solution for administration was orally administered to each mouse, 30 minutes before the subcutaneous injection of the compound 48/80, and its volume was 10 ml/kg. The solvent-administered mice were a control group.

Acute toxicity test = settings: oral administration, male dd mice, mortality on the seventh day
Experimental: The test compound was administered orally or intraperitoneally to three/group male dd mice (body weight: 20±1 g). The minimum lethal dose (MLD) was obtained by observing the mortality on the seventh day after the administration.

## C[C@](O)(C(=O)Nc1cccc2c1C(=O)c1sccc1CS2(=O)=O)C(F)(F)F [Compound 1, (S)-(+)-3,3,3-trifluoro-2-hydroxy-2-methyl-N-(5,5,10-trioxo-4,10-dihydrothieno[3,2c][1]benzothiepin-9-yl)propanamide]
[1]; 10 mg/kg p.o., 2 hours before intracutaneous poly-L-arginine, mean ± standard error, n = 8
  Number of Scratching Actions for 30 minutes: 14 ± 3
[1]; p.o.
  effect on poly-L-arginine-induced pruritic behavior (in words): inhibited
[2]; 3 mg/kg p.o., 0-5 min after subcutaneous injection of compound 48/80, totaled, n = 4
  number of the scratching: 3 ± 1
[2]; 3 mg/kg p.o., 5-10 min after subcutaneous injection, totaled, n = 4
  number of the scratching: 7 ± 2
[2]; 3 mg/kg p.o., 10-15 min after subcutaneous injection, totaled, n = 4
  number of the scratching: 9 ± 1
[2]; 3 mg/kg p.o., 15-20 min after subcutaneous injection, totaled, n = 4
  number of the scratching: 12 ± 4
[2]; 3 mg/kg p.o., 20-25 min after subcutaneous injection, totaled, n = 4
  number of the scratching: 13 ± 4
[2]; 3 mg/kg p.o., 25-30 min after subcutaneous injection, totaled, n = 4
  number of the scratching: 14 ± 5
[2]; 3 mg/kg p.o., 30-35 min after subcutaneous injection, totaled, n = 4
  number of the scratching: 15 ± 5
[2]; 3 mg/kg p.o., 35-40 min after subcutaneous injection, totaled, n = 4
  number of the scratching: 15 ± 5
[2]; 3 mg/kg p.o., 40-45 min after subcutaneous injection, totaled, n = 4
  number of the scratching: 17 ± 6
[2]; 3 mg/kg p.o., 45-50 min after subcutaneous injection, totaled, n = 4
  number of the scratching: 18 ± 6
[2]; 3 mg/kg p.o., 50-55 min after subcutaneous injection, totaled, n = 4
  number of the scratching: 18 ± 6
[2]; 3 mg/kg p.o., 55-60 min after subcutaneous injection, totaled, n = 4
  number of the scratching: 18 ± 6
[2]; 10 mg/kg p.o., 0-5 min after subcutaneous injection, totaled, n = 4
  number of the scratching: 2 ± 1
[2]; 10 mg/kg p.o., 5-10 min after subcutaneous injection, totaled, n = 4
  number of the scratching: 6 ± 2
[2]; 10 mg/kg p.o., 10-15 min after subcutaneous injection, totaled, n = 4
  number of the scratching: 8 ± 2
[2]; 10 mg/kg p.o., 15-20 min after subcutaneous injection, totaled, n = 4
  number of the scratching: 9 ± 2
[2]; 10 mg/kg p.o., 20-25 min after subcutaneous injection, totaled, n = 4
  number of the scratching: 10 ± 3
[2]; 10 mg/kg p.o., 25-30 min after subcutaneous injection, totaled, n = 4
  number of the scratching: 10 ± 3
[2]; 10 mg/kg p.o., 30-35 min after subcutaneous injection, totaled, n = 4
  number of the scratching: 11 ± 3
[2]; 10 mg/kg p.o., 35-40 min after subcutaneous injection, totaled, n = 4
  number of the scratching: 11 ± 3
[2]; 10 mg/kg p.o., 40-45 min after subcutaneous injection, totaled, n = 4
  number of the scratching: 12 ± 3
[2]; 10 mg/kg p.o., 45-50 min after subcutaneous injection, totaled, n = 4
  number of the scratching: 12 ± 3
[2]; 10 mg/kg p.o., 50-55 min after subcutaneous injection, totaled, n = 4
  number of the scratching: 12 ± 3
[2]; 10 mg/kg p.o., 55-60 min after subcutaneous injection, totaled, n = 4
  number of the scratching: 12 ± 3
[2]; 30 mg/kg p.o., 0-5 min after subcutaneous injection, totaled, n = 4
  number of the scratching: 0 ± 0
[2]; 30 mg/kg p.o., 5-10 min after subcutaneous injection, totaled, n = 4
  number of the scratching: 0 ± 0
[2]; 30 mg/kg p.o., 10-15 min after subcutaneous injection, totaled, n = 4
  number of the scratching: 1 ± 1
[2]; 30 mg/kg p.o., 15-20 min after subcutaneous injection, totaled, n = 4
  number of the scratching: 2 ± 1
[2]; 30 mg/kg p.o., 20-25 min after subcutaneous injection, totaled, n = 4
  number of the scratching: 3 ± 1
[2]; 30 mg/kg p.o., 25-30 min after subcutaneous injection, totaled, n = 4
  number of the scratching: 3 ± 1
[2]; 30 mg/kg p.o., 30-35 min after subcutaneous injection, totaled, n = 4
  number of the scratching: 4 ± 1
[2]; 30 mg/kg p.o., 35-40 min after subcutaneous injection, totaled, n = 4
  number of the scratching: 4 ± 1
[2]; 30 mg/kg p.o., 40-45 min after subcutaneous injection, totaled, n = 4
  number of the scratching: 4 ± 1
[2]; 30 mg/kg p.o., 45-50 min after subcutaneous injection, totaled, n = 4
  number of the scratching: 4 ± 1
[2]; 30 mg/kg p.o., 50-55 min after subcutaneous injection, totaled, n = 4
  number of the scratching: 4 ± 1
[2]; 30 mg/kg p.o., 55-60 min after subcutaneous injection, totaled, n = 4
  number of the scratching: 4 ± 1
[2]
  effect on compound 48/80-induced scratching (in words): inhibited
Acute toxicity test
  minimum lethal dose (MLD): > 1000 mg/kg

## CC(C)(O)C(=O)Nc1cccc2c1C(=O)c1sccc1CS2(=O)=O [Compound 2, 2-hydroxy-2-methyl-N-(5,5,10-trioxo-4,10-dihydrothieno [3,2c][1]benzothiepin-9-yl)propanamide]
[2]; 30 mg/kg p.o., 0-10 min after subcutaneous injection, totaled, n = 10
  number of the scratching: 10 ± 2
[2]; 30 mg/kg p.o., 10-20 min after subcutaneous injection, totaled, n = 10
  number of the scratching: 11 ± 3
[2]; 30 mg/kg p.o., 20-30 min after subcutaneous injection, totaled, n = 10
  number of the scratching: 14 ± 2
[2]; 30 mg/kg p.o., 30-40 min after subcutaneous injection, totaled, n = 10
  number of the scratching: 14 ± 2
[2]; 30 mg/kg p.o., 40-50 min after subcutaneous injection, totaled, n = 10
  number of the scratching: 14 ± 2
[2]; 30 mg/kg p.o., 50-60 min after subcutaneous injection, totaled, n = 10
  number of the scratching: 14 ± 2
[2]
  effect on compound 48/80-induced scratching (in words): inhibited
